A short description of this data set: Human HepG2 cell viability assay in 384 well format. The data set is classed as toxicity, cell-based. More on the design: dose 125 nL, time 70.5 hour; cytotoxicity at 70.5 h: concentration not given beside the values. Conditions: HepG2 cells, read-out: Inhibition.
For the molecule `CC(C)CNC(=O)CC1OCCc2ccsc21` (stereo unspecified), the cytotoxicity at 70.5 h is -7.58%.

As for `CCCNC(=O)CC1OCCc2ccsc21` (stereo unspecified), the cytotoxicity at 70.5 h is -6.25%. For `COCCn1ccc(NCc2sccc2C)n1` the value was -3.13%; for `CNC(=O)CN1CCOC(c2ccccc2C(F)(F)F)C1` (stereo unspecified), 7.85%; for `COCc1nccc(C2CCCN(Cc3ccc(C#N)cc3)C2)n1` (stereo unspecified), -5.34%. The value for `COCc1nccc(C2CCCN(Cc3ccc(SC)cc3)C2)n1` (stereo unspecified) was -3.62%; that for `O=C(c1ccc2c(c1)OCCCO2)N1CCCCC1C1OCCO1` (stereo unspecified) was -3.71%; that for `COCc1nccc(C2CCCN(Cc3ccc(C#N)cc3F)C2)n1` (stereo unspecified) was -1.86%. For the molecule `COCCNC(=O)C1(c2ccc(C)c(OC)c2)CCCC1`, the cytotoxicity at 70.5 h was -10.9%. Regarding `O=C(CN1CCOC(c2ccccc2C(F)(F)F)C1)NC1CC1` (stereo unspecified), the cytotoxicity at 70.5 h is -7.54%. The value for `CCN(CCC(=O)NC1CC1)Cc1ccc(Cl)s1` was -11.3%; that for `COCCNS(=O)(=O)c1ccc(Cl)c(C(=O)N(C)Cc2sccc2C)c1` was -12.1%. As to `COc1ccc(NC(=O)N(C)Cc2ccco2)cn1`, the cytotoxicity at 70.5 h was -6.69%. As to `Cc1cccc(CNc2cncc(-n3cccn3)n2)c1`, the cytotoxicity at 70.5 h is -5.29%. For `O=C(CCSc1ccccc1)NCCn1nc2ccccn2c1=O` the value was -8.89%; for `CC1CCN(CC2CCCN(C(=O)Nc3ccccn3)C2)CC1` (stereo unspecified), -7.54%; for `Cn1c(NC(=O)CNC(=O)C2CCCC2)nc2cc(Cl)ccc21`, -9.81%. For `O=C(NCCN1CCOCC1)c1ccc(-c2ccccc2)[nH]c1=O` the value was -2.93%; for `Cc1ccc(C(=O)NCCN2CCOCC2)c(=O)[nH]1`, -11.5%. For the molecule `COc1ccc(CC(=O)NCCn2nc3ccccn3c2=O)cc1`, the cytotoxicity at 70.5 h came to 12.9%.

With `COc1c(CNCc2ccc(N3CCOCC3)cc2)c(C)nn1C`, the cytotoxicity at 70.5 h was -9.85%. For `O=C(NC1CCCCC1)C1CCCN(C(=O)Nc2ccccn2)C1` (stereo unspecified) the value was -15.3%. For `CN1CCN(C(=O)NCCNc2ncccn2)Cc2ccccc21` the value was -14%; for `Cc1cc(NCCn2cccn2)n2ncnc2n1`, 0.75%; for `COCCC(C)NC(=O)Nc1ccc(N2CCOC2=O)c(OC)c1` (stereo unspecified), -11%.

For the molecule `Cc1ccc(NCCNC(=O)C2Cc3cc(C)c(C)cc3O2)nn1` (stereo unspecified), the cytotoxicity at 70.5 h was -2.18%. Turning to `COc1cc(NC(=O)N(C)Cc2ccc(Br)o2)ncn1`, the cytotoxicity at 70.5 h was -8.49%. Take `CCC(CNC(=O)c1c(C)nn(C)c1OC)Oc1ccccc1` (stereo unspecified): the cytotoxicity at 70.5 h was -7.65%. For `O=C(NCc1cccnc1)NCC(O)c1cccc(C(F)(F)F)c1` (stereo unspecified) the value was -9.97%; for `COC(=O)NCCCC(=O)NCC1(c2cccc(Cl)c2)CC1`, 20.6%. The value for `CNS(=O)(=O)CC1CCCN1C(=O)c1cccc(Cl)c1` (stereo unspecified) was -7.35%; that for `Cc1c(C(=O)N2CCSCC2)sc2nc(C(F)(F)F)ccc12` was -9.06%; that for `Cc1c(C(N)=O)sc2nc(C(F)(F)F)ccc12` was 19.9%. As for `CN(Cc1nc(-c2cccnc2)no1)C(=O)c1cnc2n1CCCC2`, the cytotoxicity at 70.5 h was -6.12%.

Turning to `CCC(=O)N1CCC(NC2CCSCC2)C1` (stereo unspecified), the cytotoxicity at 70.5 h is -8.75%. For `CN(C)S(=O)(=O)c1cccc(NC(=O)Cc2ccon2)c1` the value was -4.37%; for `Cc1nc(C)n(Cc2cccc(NC3CCN(C)C3=O)c2)n1` (stereo unspecified), -10.6%.

Take `CC(OCC(F)(F)F)C(=O)NCCN(C)C` (stereo unspecified): the cytotoxicity at 70.5 h is 20.8%. For `CCN(CC)CCNC(=O)C(C)OCC(F)(F)F` (stereo unspecified) the value was -3.49%; for `CCSCc1cccc(NC2CCN(C)C2=O)c1` (stereo unspecified), 19.7%; for `COCCn1cc(NC(=O)C(C)CCc2ccccc2F)ccc1=O` (stereo unspecified), -11.1%. The value for `O=C(CCCn1cncn1)N1CCCCC1c1nccs1` (stereo unspecified) was -4.13%; that for `CC(C)CC(=O)NCCCn1cncn1` was 16.9%.

`CC(C)(C)CC(=O)NCCCn1cncn1`: the cytotoxicity at 70.5 h is -6.64%.

As for `CC(C)(C)C(=O)NCCCn1cncn1`, the cytotoxicity at 70.5 h was 6.35%. The value for `Cc1cn2c(n1)C(CNCC1=Cc3cc(Cl)ccc3OC1)CCC2` (stereo unspecified) was 3.13%; that for `CC(C)c1nnc2n1CC(CNCc1nnc(C(C)(C)C)o1)CC2` (stereo unspecified) was 9.48%; that for `Cc1cc(C)c(CNC(=O)NC2CCOCC2)c(=O)[nH]1` was -12.6%. For `COc1cccc(CN(C)CC2=Nc3ccccc3S(=O)(=O)N2)c1` the value was -8.56%; for `COc1cccc(CSCC2=Nc3ccccc3S(=O)(=O)N2)c1`, 3.53%; for `O=C(c1cc(F)cc2[nH]cnc12)N1CCCCC1Cn1cccn1` (stereo unspecified), -7.7%. For `CN(C)S(=O)(=O)c1ccc2c(c1)N(Cc1nccn1C)CC2` the value was -3.03%. Regarding `CC(C)n1nc2c(cc1=O)CN(c1ncnc3sccc13)CC2`, the cytotoxicity at 70.5 h is -10.1%. The value for `O=C(c1ccc2[nH]cnc2c1)N1CCCC1Cn1cccn1` (stereo unspecified) was -8.04%; that for `Cc1cc(S(=O)(=O)NC(=O)CCc2cccnc2)c(C)s1` was 1.22%; that for `Cn1cnnc1-c1ccnc(NCc2ccccc2)c1` was -6.07%. For `Fc1ccc(Br)c(NCc2nnsc2Cl)c1`, the cytotoxicity at 70.5 h is -2.39%. For `Cn1cnnc1-c1ccnc(NCc2ccc(Br)cc2)c1` the value was -4.99%; for `OC(CNC1CCOCC1)c1ccc(Cl)c(F)c1` (stereo unspecified), 0.212%; for `Cc1nc(CNCC(C)c2nc3ccccc3o2)cs1` (stereo unspecified), 0.552%. For `Cc1csc(CNCC(C)c2nc3ccccc3o2)n1` (stereo unspecified), the cytotoxicity at 70.5 h was found to be 15%. Regarding `Cc1ncsc1CNCC(C)c1nc2ccccc2o1` (stereo unspecified), the cytotoxicity at 70.5 h was -7.51%. The value for `CCN(CC)S(=O)(=O)N1CCCC1c1nnc2n1CCCCC2` (stereo unspecified) was -8.56%; that for `CSCC(=O)N(C)Cc1ccccc1` was -6.59%; that for `Cc1cn2c(n1)C(CNCc1cccc3c1OCO3)CCC2` (stereo unspecified) was 23.3%.

In the case of `Fc1ccc(NCc2nnsc2Cl)c(OC(F)F)c1`, the cytotoxicity at 70.5 h was determined as 0.194%. As to `CCN(C)C(=O)Nc1cc(F)c(OC)cc1F`, the cytotoxicity at 70.5 h was found to be 18.4%. For `CC(C)Cn1cc(NCc2cscn2)cn1` the value was 9.5%. Turning to `c1coc(-c2nnc(CN(Cc3cccs3)CC3CCCO3)o2)c1` (stereo unspecified), the cytotoxicity at 70.5 h was -6.66%. For `CN(CC(=O)NC(C)(C)C)Cc1nc(-c2ccccc2)c[nH]1` the value was 39%; for `O=C1NCCCCC1NCc1csc(-c2ccsc2)n1` (stereo unspecified), 7.38%; for `CC(CNC(=O)c1nc(N2CCOCC2)ncc1Cl)c1ccccc1` (stereo unspecified), 7.86%. In the case of `COCCNS(=O)(=O)c1ccc(CNc2ncccc2C#N)cc1`, the cytotoxicity at 70.5 h was -12.6%.

`O=C(c1cccnc1O)N1CCC(COc2ccccc2)CC1`: the cytotoxicity at 70.5 h was -14.5%. For `COc1cc2c(cc1OC)S(=O)(=O)N(Cc1ccccc1)C2=O` the value was -14.6%. For `COc1ccccc1N1CCN(Cc2nc(C)c(C)o2)CC1`, the cytotoxicity at 70.5 h is -8.1%. The value for `COc1cc(C(C)=O)ccc1SCC(=O)Nc1cc(C)n[nH]1` was -11.8%; that for `COc1ccc2c(c1)CCCN(C(C)C(=O)NC(N)=O)C2` (stereo unspecified) was -8.05%; that for `COc1cc(F)ccc1N1CCN(Cc2nc(C)c(C)o2)CC1` was -11.2%. With `CCN(C)c1ccc(CNC(=O)c2cc(C(N)=O)cs2)cc1F`, the cytotoxicity at 70.5 h was -8.22%. The value for `CN(C)CCn1ccc2ccc(NC(=O)c3ccncc3F)cc21` was -6.52%; that for `NC(=O)c1cccc(OCCC(=O)NC2CCc3c(F)cccc32)c1` (stereo unspecified) was -9.97%. For `N#Cc1ccc(NCCc2n[nH]c(=O)[nH]2)cc1Cl` the value was -10.2%.

In the case of `O=C(c1coc2ccccc12)N1CCCC1`, the cytotoxicity at 70.5 h was -9.29%.

On to `O=C(CO)N1CCN(C(=O)c2coc3ccccc23)CC1`, for which the cytotoxicity at 70.5 h was -7.53%. Regarding `CC(C)OCCSCc1nnc(-c2cccc(F)c2)o1`, the cytotoxicity at 70.5 h is -5.57%.

With `CCCN(Cc1ccc(C#N)cc1)Cc1nnsc1Cl`, the cytotoxicity at 70.5 h worked out at 26.4%. The value for `CC(=O)c1ccc(C(=O)N2CCCCC2c2nc[nH]n2)cc1` (stereo unspecified) was 1.34%; that for `Cc1cc(NC(=O)CNc2cccc(C(=O)N3CCCC(O)C3)c2)no1` (stereo unspecified) was -3.66%. For `COc1cccc(CNc2cc(C)nc(-c3ccncc3)n2)c1OC` the value was -6.44%.

As to `O=C(Nc1ccc(CC(=O)N2CCSCC2)cc1)NC1CCCC1`, the cytotoxicity at 70.5 h was -4.2%.

For the molecule `CCOc1ccccc1C(CC(=O)O)NC(C)=O` (stereo unspecified), the cytotoxicity at 70.5 h is -4.62%. Take `CC(C)C(C)(C#N)NC(=O)Cn1cc(C(N)=O)c(-c2ccccc2)n1` (stereo unspecified): the cytotoxicity at 70.5 h was -6.34%. For `Cc1cc(C)n(C2CN(CCc3ccncc3)C2)n1` the value was 42.3%. The value for `CCc1ccc(NC(=O)C(C)N2CCN(Cc3ncc[nH]3)CC2)cc1` (stereo unspecified) was -2.82%; that for `COc1cc(CNc2cnn(CCN3CCOCC3)c2)cc(OC)c1` was -20.4%. The value for `CCS(=O)(=O)CCN(C)C(=O)NC(C)c1ccc(C)s1` (stereo unspecified) was -5.27%; that for `OC(COCc1ccccc1F)CN1CCC(Cn2cccn2)CC1` (stereo unspecified) was -0.0861%. Take `CCN(C(=O)CCCOC)C(c1ccc(Cl)cc1)c1ccccn1` (stereo unspecified): the cytotoxicity at 70.5 h amounted to 31.1%. Turning to `Cc1cccc2c1NC(c1cnc(C3CCC3)s1)NC2=O` (stereo unspecified), the cytotoxicity at 70.5 h is -18.5%. Consider `O=C(COCc1ccccc1Cl)Nc1ccnn1CC1CCOC1` (stereo unspecified), for which the cytotoxicity at 70.5 h is -18.3%. Turning to `COc1ccc(C2CCN(C(=O)c3ncccc3OC(C)C)C2)cc1` (stereo unspecified), the cytotoxicity at 70.5 h was 11.5%.

As to `CCN(Cc1cnn(C)c1)C(=O)c1cc2ccccc2c(=O)[nH]1`, the cytotoxicity at 70.5 h is -7.09%.

Turning to `NC(=O)CC1CCCCN1C(=O)Cc1cccc(Br)c1` (stereo unspecified), the cytotoxicity at 70.5 h was -4.57%. The value for `COc1c(CNCc2nnc3n2CCCCC3)c(C)nn1C` was -6.68%; that for `COc1c(CNCc2nnc3n2CCCCC3)c(C(C)C)nn1C` was -4.88%.

(Values after ChEMBL document CHEMBL3507680, “University of Dundee, Gates Library screen for HepG2 cell viability”.)
